In this assay the target is T1, human FSH receptor (Homo sapiens, UniProt P23945).
T1 construct: expressed in transfected cells; host or cells: CHO cells (hFSHR clone 16)
T1 sequence (P23945 18-695): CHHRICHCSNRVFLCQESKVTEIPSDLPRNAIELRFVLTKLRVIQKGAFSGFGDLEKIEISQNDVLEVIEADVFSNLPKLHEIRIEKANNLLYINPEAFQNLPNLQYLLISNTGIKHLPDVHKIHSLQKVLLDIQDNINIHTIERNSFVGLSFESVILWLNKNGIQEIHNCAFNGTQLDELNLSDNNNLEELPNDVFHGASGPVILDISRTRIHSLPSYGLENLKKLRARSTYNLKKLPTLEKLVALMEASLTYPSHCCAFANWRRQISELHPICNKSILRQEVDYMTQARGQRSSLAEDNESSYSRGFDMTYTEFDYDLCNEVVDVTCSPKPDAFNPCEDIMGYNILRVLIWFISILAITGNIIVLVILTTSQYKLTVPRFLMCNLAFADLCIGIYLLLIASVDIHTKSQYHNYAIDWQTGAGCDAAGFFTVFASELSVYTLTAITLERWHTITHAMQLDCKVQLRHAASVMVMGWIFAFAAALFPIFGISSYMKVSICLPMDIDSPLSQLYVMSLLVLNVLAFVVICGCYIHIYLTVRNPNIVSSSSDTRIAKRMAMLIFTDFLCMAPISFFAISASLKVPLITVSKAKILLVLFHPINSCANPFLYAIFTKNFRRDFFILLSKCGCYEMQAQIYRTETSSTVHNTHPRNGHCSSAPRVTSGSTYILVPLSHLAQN
Nature of the assay: HTRF assay for measuring cAMP in cells (FSH-antagonistic effect). The conditions noted are these: hFSHR clone 16 cells (CHO cells stably transfected with the human FSH receptor), in the presence of 1e-9 mol/l hFSH, 37° C. for 2 h. The class given is cell-based. The method, then:
HTRF Assay for Measuring cAMP in Cells
The method is based on a competitive immunoassay between native cAMP, which has been produced by the cells, and cAMP which is labelled with cAMPD2 conjugate. The tracer binding was visualized by a monoclonal antibody, anti-cAMP labelled with cryptate [HTRF=homogeneous time-resolved fluorescence].
The specific signal is inversely proportional to the cAMP concentration of the samples employed.
The 665 nm/620 nm fluorescence ratio was evaluated.
Materials used: 96-well plates for the tissue culture, 96-well plates with black edge and black base (e.g. Fluotrac 600 from Greiner), 96-well plates for the substance dilutions of polypropylene and cAMP Femtomolar (4000 wells Kit, CIS Bio International # 62AM5PEJ).
Reagent used: BSA (bovine serum albumin) Fraction V protease-free, IBMX (3-isobutyl-1-methylxanthine), hFSH (human follicle stimulating hormone), Triton X-100 analytical grade, potassium fluoride analytical grade, G 418 (Geneticin) and Accutase.
Buffer 1 (washing and testing buffer) contained PBS, 1 mM CaCl2, 1 mM MgCl2, 0.2% glucose; 0.1% BSA, 1 mM IBMX.
Buffer 2 (2× lysis buffer) contained 1% Triton X-100 in PBS (without CaCl2 and MgCl2).
Buffer 3 (assay buffer) contained 50 mM potassium phosphate buffer (pH 7.0); 800 mM potassium fluoride; 0.2% BSA (always added fresh).
On day 1, the cells were seeded in 96-well plates (3×10^4 cells per well hFSHR clone 16 cells (CHO cells stably transfected with the human FSH receptor in 150 μl of medium). The next day, test substance dilutions were made up. For this purpose, all the substances were diluted in ice-cold buffer 1 (with or without hFSH), and the substance dilutions were placed on ice until applied to the cells. The cell supernatant was then aspirated off, and the cells were washed 2× with 200 μl of buffer 1. The cells were treated with 60 μl of the appropriate substance concentrations at 37° C. for 2 h. The cells were then lysed with 60 μl of buffer 2 (put onto the supernatant) (on a plate shaker at RT for 30 min). The test conjugates (cAMP-D2 and anti-cAMP cryptate, CIS Bio) were diluted in buffer 3 in accordance with the manufacturers' information. The actual mixture for measurement was pipetted into a black 96-well plate (in each case 15 μl of the cell lysate diluted with 35 μl of buffer 1; firstly 25 μl of cAMP-D2 conjugate were pipetted and, after 10 min, 25 μl of the anti-cAMP cryptate were added). This is followed by incubation at RT for 90 minutes. The measurement was carried out in a PheraStar (BMG).
Dose-effect curve (hFSH) for the human receptor: 1e-8, 3e-9, 1e-9, 3e-10, 1e-10, 3e-11, 1e-11, 3e-12 mol/l.
The test substances were employed in suitable dilutions in the absence (test for agonism) and in the presence of 1e-9 mol/l hFSH.
The values of the well ratio were averaged and then entered directly in SigmaPlot versus the concentrations. The maximum and minimum values were determined for each plate, and half the difference is to be regarded as IC50.
(In TR-FRET formats the signal depends on donor and acceptor labels being close together.)

Broadly, the pIC50 is the negative decadic logarithm of the IC50, by convention in mol/L.

pIC50: −log10 of the molar value.

In the case of `CC(C)Oc1ccc(C#Cc2ccc3[nH]ncc3c2)cc1C(=O)N[C@@H](CO)Cc1c[nH]c2ccccc12` [Example 113, N-[(R)-2-Hydroxy-1-(1H-indol-3-ylmethyl)-ethyl]-5-(1H-indazol-5-ylethynyl)-2-isopropoxy-benzamide], the pIC50 was 7.60. Next, `CC(C)Oc1ccc(C#Cc2cccc(S(N)(=O)=O)c2)cc1C(=O)N[C@@H](CO)Cc1c[nH]c2ccccc12` [Example 123, N-[(R)-2-Hydroxy-1-(1H-indol-3-ylmethyl)-ethyl]-2-isopropoxy-5-(3-sulfamoyl-phenylethynyl)-benzamide]: 6.60; `CC(C)Oc1ccc(C#Cc2cncc(C3=NNC(=O)C3)c2)cc1C(=O)N[C@@H](CO)Cc1c[nH]c2ccccc12` [Example 66, N—[(R)-1-Hydroxymethyl-2-(1H-indol-3-yl)-ethyl]-2-isopropoxy-5-[5-(5-oxo-4,5-dihydro-1H-pyrazol-3-yl)-pyridin-3-ylethynyl]-benzamide]: 8.00; `CNC(=O)c1ccc(C#Cc2cccc(C(=O)N[C@@H](CO)Cc3c[nH]c4ccccc34)c2)cc1` [Example 72, N-[(R)-1-Hydroxymethyl-2-(1H-indol-3-yl)-ethyl]-5-(4-methylcarbamoyl-phenylethynyl)-benzamide]: 5.60. To `CC(C)Oc1ccc(C#Cc2cccc(C(=O)NCCS(N)(=O)=O)c2)cc1C(=O)N[C@@H](CO)Cc1c[nH]c2ccccc12` [Example 167, N-[(R)-1-Hydroxymethyl-2-(1H-indol-3-yl)-ethyl]-2-isopropoxy-5-[3-(2-sulfamoyl-ethylcarbamoyl)-phenylethynyl]-benzamide] belongs 7.64. Next, `CC(C)Oc1ccc(C#Cc2ccc3c(c2)C(=O)NC3=O)cc1C(=O)N[C@@H](CO)Cc1c[nH]c2ccccc12` [Example 156, 5-(1,3-Dioxo-2,3-dihydro-1H-isoindol-5-ylethynyl)-N-[(R)-1-hydroxymethyl-2-(1H-indol-3-yl)-ethyl]-2-isopropoxy-benzamide]: 7.82. On to `Cc1ccc(C#Cc2ccc(OC(C)C)c(C(=O)N[C@@H](CO)Cc3c[nH]c4ccccc34)c2)nc1` [Example 94, N-[(R)-1-Hydroxymethyl-2-(1H-indol-3-yl)-ethyl]-2-isopropoxy-5-(5-methyl-pyridin-2-ylethynyl)-benzamide], for which the pIC50 is 7.10. Next, `CC(C)Oc1ccc(C#Cc2ccc(C(=O)NCCC(N)=O)cc2)cc1C(=O)N[C@@H](CO)Cc1c[nH]c2ccccc12` [Example 177, 5-[4-(2-Carbamoyl-ethylcarbamoyl)-phenylethynyl]-N-[(R)-1-hydroxymethyl-2-(1H-indol-3-yl)-ethyl]-2-isopropoxy-benzamide]: 7.70; `CC(C)Oc1ccc(C#Cc2ccccc2CC(=O)O)cc1C(=O)N[C@@H](CO)Cc1c[nH]c2ccccc12` [Example 58, (2-{3-[(R)-1-Hydroxymethyl-2-(1H-indol-3-yl)-ethylcarbamoyl]-4-isopropoxy-phenylethynyl}-phenyl)-acetic acid]: 5.60; `Cc1cc(C)cc(C#Cc2ccc(OC(C)C)c(C(=O)N[C@@H](CO)Cc3c[nH]c4ccccc34)c2)c1` [Example 40, 5-(3,5-Dimethyl-phenylethynyl)-N-[(R)-1-hydroxymethyl-2-(1H-indol-3-yl)-ethyl]-2-isopropoxy-benzamide]: 6.30. Next, `CC(C)Oc1ccc(C#Cc2ccc(N3CCNCC3)cc2)cc1C(=O)N[C@@H](CO)Cc1c[nH]c2ccccc12` [Example 140, N-[(R)-1-Hydroxymethyl-2-(1H-indol-3-yl)-ethyl]-2-isopropoxy-5-(4-piperazin-1-yl-phenylethynyl)-benzamide]: 5.46; `COC(=O)CCCCCNC(=O)c1ccc(C#Cc2ccc(OC(C)C)c(C(=O)N[C@@H](CO)Cc3c[nH]c4ccccc34)c2)cc1` [Example 171, 6-(4-{3-[(R)-1-Hydroxymethyl-2-(1H-indol-3-yl)-ethylcarbamoyl]-4-isopropoxy-phenylethynyl}-benzoylamino)-hexanoic acid methyl ester]: 7.60.

In the case of `CC(C)Oc1ccc(C#Cc2ccc3oc(C(=O)O)cc3c2)cc1C(=O)N[C@@H](CO)Cc1c[nH]c2ccccc12` [Example 127, 5-{3-[(R)-1-Hydroxymethyl-2-(1H-indol-3-yl)-ethylcarbamoyl]-4-isopropoxy-phenylethynyl}-benzofuran-2-carboxylic acid], the pIC50 is 7.05. Next, `CC(C)Oc1ccc(C#Cc2ccc(-c3ccccc3)cc2)cc1C(=O)N[C@@H](CO)Cc1c[nH]c2ccccc12` [Example 111, 5-Biphenyl-4-ylethynyl-N-[(R)-1-hydroxymethyl-2-(1H-indol-3-yl)-ethyl]-2-isopropoxy-benzamide]: 5.70; `CC(C)Oc1ccc(C#Cc2cnc(N3CCOCC3)nc2)cc1C(=O)N[C@@H](CO)Cc1c[nH]c2ccccc12` [Example 145, N-[(R)-1-Hydroxymethyl-2-(1H-indol-3-yl)-ethyl]-2-isopropoxy-5-(2-morpholin-4-yl-pyrimidin-5-ylethynyl)-benzamide]: 6.52; `CC(C)Oc1ccc(C#Cc2ccc(C(=O)NCCN3CCNC(=O)C3)cc2)cc1C(=O)N[C@@H](CO)Cc1c[nH]c2ccccc12` [Example 173, N-[(R)-1-Hydroxymethyl-2-(1H-indol-3-yl)-ethyl]-2-isopropoxy-5-{4-[2-(3-oxo-piperazin-1-yl)-ethylcarbamoyl]-phenylethynyl}-benzamide]: 7.46. As for `CNC(=O)c1cccc(C#Cc2ccc(Cl)c(C(=O)NC(CO)Cc3c[nH]c4cc(F)ccc34)c2)c1` (centres unmarked) [Example 83, 2-Chloro-N-[2-(6-fluoro-1H-indol-3-yl)-1-hydroxymethyl-ethyl]-5-(3-methylcarbamoyl-phenylethynyl)-benzamide], the pIC50 was 6.15. To `CC(C)Oc1ccc(C#Cc2ccc3c(c2)C(=O)NCC3)cc1C(=O)N[C@@H](CO)Cc1c[nH]c2ccccc12` [Example 68, N-[(R)-1-Hydroxymethyl-2-(1H-indol-3-yl)-ethyl]-2-isopropoxy-5-(1-oxo-1,2,3,4-tetrahydro-isoquinolin-7-ylethynyl)-benzamide] belongs 7.52. Next, `CC(C)Oc1ccc(C#Cc2cncc(C(N)=O)c2)cc1C(=O)N[C@@H](CO)Cc1c[nH]c2ccccc12` [Example 97, 5-{3-[(R)-1-Hydroxymethyl-2-(1H-indol-3-yl)-ethylcarbamoyl]-4-isopropoxy-phenylethynyl}-nicotinamide]: 7.82; `CC(C)Oc1ccc(C#Cc2ccccc2)cc1C(=O)NC(CO)Cc1c[nH]c2cc(F)ccc12` (centres unmarked) [Example 75, N-[2-(6-Fluoro-1H-indol-3-yl)-1-hydroxymethyl-ethyl]-2-isopropoxy-5-phenylethynyl-benzamide]: 7.00.

(Values after patent US20080221195A1, “1,2-DIARYLACETYLENE DERIVATIVES OF ACYLTRYPTOPHANOLS” (priority 2006, published 2008).)
